Measurements from patent US8415469B2, “Compounds and methods for kinase modulation, and indications therefor” (Plexxikon Inc., priority 2005, dated 2013).

Experiments:
Assay type in all cases: biochemical
[1] = target: T1, Ret (Homo sapiens, UniProt P07949); assay: AlphaScreen kinase assay, Ret; conditions: read-out: IC50, activity toward kinase Ret
T1 construct: P1378.pET-SF BI-PTP RET H661-R1012 HIS; made in house
T1 sequence (P07949 with tags, fused parts or gaps): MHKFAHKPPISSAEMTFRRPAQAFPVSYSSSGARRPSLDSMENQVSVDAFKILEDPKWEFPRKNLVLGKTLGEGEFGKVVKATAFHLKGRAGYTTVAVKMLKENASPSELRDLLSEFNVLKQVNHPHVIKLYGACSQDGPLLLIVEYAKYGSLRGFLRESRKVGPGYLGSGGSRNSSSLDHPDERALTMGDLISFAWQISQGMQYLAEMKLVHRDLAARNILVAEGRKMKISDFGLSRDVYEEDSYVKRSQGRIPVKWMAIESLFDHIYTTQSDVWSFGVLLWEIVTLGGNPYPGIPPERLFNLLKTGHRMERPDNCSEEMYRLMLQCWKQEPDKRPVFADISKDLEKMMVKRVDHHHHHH

[2] = target: T2, FGFR1 (Homo sapiens, UniProt P11362, C488A/C584S); assay: AlphaScreen kinase assay, FGFR1; conditions: read-out: IC50, activity toward kinase FGFR
T2 construct: P1351.pET N6 BI-PTP FGFR A458-E765-X C488A, C584S; made in house; host or cells: E. coli (PTP1B co-expressed)
T2 sequence (P11362 458-765 C488A/C584S): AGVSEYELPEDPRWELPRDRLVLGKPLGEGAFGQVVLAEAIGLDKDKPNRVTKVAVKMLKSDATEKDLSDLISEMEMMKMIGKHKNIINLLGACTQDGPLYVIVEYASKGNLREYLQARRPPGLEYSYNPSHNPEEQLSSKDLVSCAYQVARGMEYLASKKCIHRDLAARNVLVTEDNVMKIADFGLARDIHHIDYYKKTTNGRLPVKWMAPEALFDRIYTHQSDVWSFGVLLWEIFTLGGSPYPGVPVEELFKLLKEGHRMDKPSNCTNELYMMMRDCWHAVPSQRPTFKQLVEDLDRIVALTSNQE

[3] = target: T3, Flt4 (Homo sapiens, UniProt P35916); assay: AlphaScreen kinase assay, Flt4; conditions: read-out: IC50, activity toward kinase Flt4
T3 construct: purchased ProQinase GmbH (Freiburg, Germany)
T3 sequence (P35916 25-1363): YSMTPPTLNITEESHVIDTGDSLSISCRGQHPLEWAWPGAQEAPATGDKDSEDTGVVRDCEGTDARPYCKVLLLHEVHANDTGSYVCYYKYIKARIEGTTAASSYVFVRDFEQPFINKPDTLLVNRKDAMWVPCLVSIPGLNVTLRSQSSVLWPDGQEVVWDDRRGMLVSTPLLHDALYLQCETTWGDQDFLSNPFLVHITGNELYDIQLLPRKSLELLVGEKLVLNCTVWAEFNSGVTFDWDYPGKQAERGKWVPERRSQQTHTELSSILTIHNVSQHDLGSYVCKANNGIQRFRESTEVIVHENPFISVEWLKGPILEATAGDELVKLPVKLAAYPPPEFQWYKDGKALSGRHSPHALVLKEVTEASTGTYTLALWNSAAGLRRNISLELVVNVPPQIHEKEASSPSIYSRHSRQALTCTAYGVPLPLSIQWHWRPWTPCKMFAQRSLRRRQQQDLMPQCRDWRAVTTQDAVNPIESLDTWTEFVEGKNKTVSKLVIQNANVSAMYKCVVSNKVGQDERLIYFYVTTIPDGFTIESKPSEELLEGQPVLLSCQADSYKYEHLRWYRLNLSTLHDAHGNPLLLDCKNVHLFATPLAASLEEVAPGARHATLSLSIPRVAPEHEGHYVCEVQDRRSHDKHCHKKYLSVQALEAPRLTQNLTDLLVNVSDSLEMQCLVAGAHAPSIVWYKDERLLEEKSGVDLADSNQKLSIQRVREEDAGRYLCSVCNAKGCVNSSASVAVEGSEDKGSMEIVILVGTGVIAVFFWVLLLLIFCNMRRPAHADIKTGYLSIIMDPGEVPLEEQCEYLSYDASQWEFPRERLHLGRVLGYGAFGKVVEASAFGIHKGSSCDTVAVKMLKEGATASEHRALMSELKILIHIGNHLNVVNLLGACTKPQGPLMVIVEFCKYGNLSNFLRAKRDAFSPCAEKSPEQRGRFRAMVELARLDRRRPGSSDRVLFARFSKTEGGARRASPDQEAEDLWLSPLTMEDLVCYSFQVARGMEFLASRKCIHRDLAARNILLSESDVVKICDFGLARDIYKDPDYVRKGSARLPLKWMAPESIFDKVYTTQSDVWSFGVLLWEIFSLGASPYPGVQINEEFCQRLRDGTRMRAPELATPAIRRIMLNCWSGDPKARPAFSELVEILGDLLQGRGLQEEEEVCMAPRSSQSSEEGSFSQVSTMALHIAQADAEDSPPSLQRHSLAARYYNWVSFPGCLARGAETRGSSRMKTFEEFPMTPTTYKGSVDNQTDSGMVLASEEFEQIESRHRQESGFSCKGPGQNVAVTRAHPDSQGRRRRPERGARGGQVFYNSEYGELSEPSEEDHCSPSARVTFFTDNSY
Excerpt: AlphaScreen assay was used to screen additional kinases. The assay is similarly dependent on the phosphorylation of a peptide substrate. In this assay, an antibody that recognizes phosphorylated substrate is bound to an acceptor bead. The peptide substrate is attached to biotin, which binds to a donor head that contains streptavidin. Thus phosphorylated substrate is bound by antibody and streptavidin, bringing the donor and acceptor heads into close proximity when kinase is not inhibited. The donor produces singlet oxygen which results in emission from the acceptor when they are in close proximity. Conversely, when kinase is inhibited, the donor and acceptor beads are not associated and the emission from the acceptor is reduced.
AlphaScreen assays were done using compounds dissolved in DMSO to a concentration of 20 mM. The compounds were diluted accordingly to the desired final concentrations in each sample well, using 1:3 serial dilution for a total of 8 concentration points.

[4] = target: T4, Abl (Homo sapiens, UniProt P00519); assay: AlphaScreen kinase assay, Abl; conditions: read-out: activity toward kinase Abl, IC50
T4 construct: P1121. pET-SPEC BI-PTP Abl G227-V515-X; His6 (N); made in house; host or cells: E. coli (PTP1B co-expressed)
T4 sequence (P00519 with tags, fused parts or gaps): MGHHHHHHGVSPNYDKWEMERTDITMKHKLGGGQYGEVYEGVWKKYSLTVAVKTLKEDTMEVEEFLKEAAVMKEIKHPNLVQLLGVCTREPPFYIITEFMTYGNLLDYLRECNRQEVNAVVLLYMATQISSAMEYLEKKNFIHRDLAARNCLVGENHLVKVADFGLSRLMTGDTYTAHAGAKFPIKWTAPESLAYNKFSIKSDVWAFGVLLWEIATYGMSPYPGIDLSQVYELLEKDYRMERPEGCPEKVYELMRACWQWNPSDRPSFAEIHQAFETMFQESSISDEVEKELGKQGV
How it was run: (§1)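 Eight concentrations per compound (1:3 serial dilution of 20 mM DMSO stock) were tested. Read-out: AlphaScreen signal from phospho-antibody acceptor and streptavidin donor beads bound to biotinylated peptide substrate, reduced on kinase inhibition.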

[5] = target: T5, Src (Homo sapiens, UniProt P12931); assay: AlphaScreen kinase assay, Src; conditions: read-out: IC50, activity toward kinase Src
T5 construct: P1144. pET-N6 BI-PTP SRC V86-L536-X; made in house
T5 sequence (P12931 with tags, fused parts or gaps): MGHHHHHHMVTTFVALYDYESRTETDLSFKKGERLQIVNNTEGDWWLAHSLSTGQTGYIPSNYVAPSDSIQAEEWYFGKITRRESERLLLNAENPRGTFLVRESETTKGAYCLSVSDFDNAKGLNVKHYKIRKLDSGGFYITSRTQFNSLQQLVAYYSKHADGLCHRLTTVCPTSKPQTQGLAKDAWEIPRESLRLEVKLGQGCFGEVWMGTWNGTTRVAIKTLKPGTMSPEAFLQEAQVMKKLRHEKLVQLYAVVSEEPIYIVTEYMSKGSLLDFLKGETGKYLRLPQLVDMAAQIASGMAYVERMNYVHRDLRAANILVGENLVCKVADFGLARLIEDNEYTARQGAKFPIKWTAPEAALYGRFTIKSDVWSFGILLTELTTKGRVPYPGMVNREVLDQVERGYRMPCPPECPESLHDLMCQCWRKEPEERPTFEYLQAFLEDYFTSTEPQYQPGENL

[6] = target: T6, Kdr (Homo sapiens, UniProt P35968); assay: Z'-Lyte FRET kinase assay (Invitrogen), Kdr; conditions: read-out: IC50, activity toward kinase Kdr
T6 construct: purchased Invitrogen (assay run by Invitrogen)
T6 sequence (P35968 20-1356): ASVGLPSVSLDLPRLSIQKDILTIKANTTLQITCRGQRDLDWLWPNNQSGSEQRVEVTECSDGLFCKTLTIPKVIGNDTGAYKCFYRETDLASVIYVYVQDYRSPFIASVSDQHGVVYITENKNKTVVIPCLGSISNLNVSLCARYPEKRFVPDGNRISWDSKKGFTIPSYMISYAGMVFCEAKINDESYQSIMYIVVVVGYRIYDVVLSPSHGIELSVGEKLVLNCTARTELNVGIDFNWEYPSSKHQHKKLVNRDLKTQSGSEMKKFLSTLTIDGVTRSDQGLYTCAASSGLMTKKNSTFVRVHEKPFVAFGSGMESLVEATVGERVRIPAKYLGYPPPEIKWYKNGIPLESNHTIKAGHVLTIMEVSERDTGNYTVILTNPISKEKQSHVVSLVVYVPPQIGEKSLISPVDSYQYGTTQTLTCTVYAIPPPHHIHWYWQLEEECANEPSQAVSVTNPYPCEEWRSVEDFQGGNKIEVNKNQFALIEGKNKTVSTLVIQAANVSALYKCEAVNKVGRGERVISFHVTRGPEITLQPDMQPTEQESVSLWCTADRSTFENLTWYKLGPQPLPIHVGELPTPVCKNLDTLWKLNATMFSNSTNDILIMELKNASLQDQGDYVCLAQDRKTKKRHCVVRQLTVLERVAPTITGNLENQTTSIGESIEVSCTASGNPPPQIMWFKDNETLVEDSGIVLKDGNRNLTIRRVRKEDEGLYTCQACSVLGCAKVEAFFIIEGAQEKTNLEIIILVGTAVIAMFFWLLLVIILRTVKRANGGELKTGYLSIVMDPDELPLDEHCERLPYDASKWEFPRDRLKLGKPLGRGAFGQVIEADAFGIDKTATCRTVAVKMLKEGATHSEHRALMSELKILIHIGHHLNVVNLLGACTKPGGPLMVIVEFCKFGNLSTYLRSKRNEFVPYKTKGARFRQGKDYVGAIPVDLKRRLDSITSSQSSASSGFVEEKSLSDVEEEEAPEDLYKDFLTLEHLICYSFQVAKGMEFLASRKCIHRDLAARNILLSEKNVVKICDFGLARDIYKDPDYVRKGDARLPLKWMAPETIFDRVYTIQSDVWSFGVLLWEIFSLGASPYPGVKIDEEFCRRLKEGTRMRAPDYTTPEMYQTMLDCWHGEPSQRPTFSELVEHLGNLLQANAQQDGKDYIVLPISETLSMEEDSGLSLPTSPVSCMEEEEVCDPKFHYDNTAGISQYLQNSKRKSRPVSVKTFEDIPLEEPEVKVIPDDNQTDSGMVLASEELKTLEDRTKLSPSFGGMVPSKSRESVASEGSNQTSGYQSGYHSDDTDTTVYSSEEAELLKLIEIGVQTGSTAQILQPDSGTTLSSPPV

[7] = target: T7, Kit (Homo sapiens, UniProt P10721); assay: AlphaScreen kinase assay, Kit; conditions: read-out: IC50, activity toward kinase Kit
T7 construct: P1332.N6 BI PTP KIT M552-K948-X COD; His6 (N); made in house; host or cells: E. coli (PTP1B co-expressed)
T7 sequence (P10721 with tags, fused parts or gaps): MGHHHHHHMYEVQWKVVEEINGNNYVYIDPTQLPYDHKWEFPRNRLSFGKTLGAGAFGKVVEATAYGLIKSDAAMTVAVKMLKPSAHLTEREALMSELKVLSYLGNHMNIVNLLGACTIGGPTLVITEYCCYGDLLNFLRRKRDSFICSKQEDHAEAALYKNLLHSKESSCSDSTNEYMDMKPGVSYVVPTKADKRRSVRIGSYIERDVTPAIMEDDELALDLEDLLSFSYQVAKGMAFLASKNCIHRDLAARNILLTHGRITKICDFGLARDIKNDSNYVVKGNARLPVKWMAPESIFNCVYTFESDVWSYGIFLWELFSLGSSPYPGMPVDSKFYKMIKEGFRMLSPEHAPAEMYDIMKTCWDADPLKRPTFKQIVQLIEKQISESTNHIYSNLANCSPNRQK

[8] = target: T8, Zap70 (Homo sapiens, UniProt P43403); assay: AlphaScreen kinase assay, Zap70; conditions: read-out: IC50, activity toward kinase Zap70
T8 construct: P1868.pFastBac1 ZAP70 D327-G606 HIS, WT; His7 (HHHHHHH) (C); made in house
T8 sequence (P43403 with tags, fused parts or gaps): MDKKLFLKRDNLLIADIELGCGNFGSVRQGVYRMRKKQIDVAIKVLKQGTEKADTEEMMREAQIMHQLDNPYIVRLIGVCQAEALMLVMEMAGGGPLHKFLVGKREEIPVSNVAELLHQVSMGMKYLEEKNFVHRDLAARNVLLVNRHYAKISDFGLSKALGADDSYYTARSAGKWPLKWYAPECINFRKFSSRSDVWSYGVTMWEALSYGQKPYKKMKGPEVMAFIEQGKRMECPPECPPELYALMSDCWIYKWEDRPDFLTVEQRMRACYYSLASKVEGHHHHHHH
How it was run: as §1

[9] = target: T9, B-Raf V600E (Homo sapiens, UniProt P15056, V600E); assay: AlphaScreen kinase assay, B-Raf V600E; conditions: read-out: IC50, activity toward kinase B-Raf V600E
T9 construct: P4254. pFastBacBD-CDC37 BRAF D437-K722-X, V600E; His6 with pFastBac HT leader (TEV site) (N); made in house; host or cells: Sf9 (baculovirus; chaperone CDC37 co-expressed)
T9 sequence (P15056 with tags, fused parts or gaps V600E): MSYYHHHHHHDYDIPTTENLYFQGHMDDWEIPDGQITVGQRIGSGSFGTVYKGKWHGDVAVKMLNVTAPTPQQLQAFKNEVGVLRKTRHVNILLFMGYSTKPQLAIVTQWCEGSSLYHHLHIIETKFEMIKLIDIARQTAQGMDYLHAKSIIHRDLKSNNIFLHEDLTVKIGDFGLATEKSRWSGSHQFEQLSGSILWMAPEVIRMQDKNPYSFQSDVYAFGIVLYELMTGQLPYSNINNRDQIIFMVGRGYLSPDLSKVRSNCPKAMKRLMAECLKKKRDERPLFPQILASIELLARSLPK

[10] = target: T10, Jnk3 (Homo sapiens, UniProt P53779); assay: AlphaScreen kinase assay, Jnk3; conditions: read-out: IC50, activity toward kinase Jnk3
T10 construct: purchased Upstate Biotechnology
T10 sequence (P53779 whole entry): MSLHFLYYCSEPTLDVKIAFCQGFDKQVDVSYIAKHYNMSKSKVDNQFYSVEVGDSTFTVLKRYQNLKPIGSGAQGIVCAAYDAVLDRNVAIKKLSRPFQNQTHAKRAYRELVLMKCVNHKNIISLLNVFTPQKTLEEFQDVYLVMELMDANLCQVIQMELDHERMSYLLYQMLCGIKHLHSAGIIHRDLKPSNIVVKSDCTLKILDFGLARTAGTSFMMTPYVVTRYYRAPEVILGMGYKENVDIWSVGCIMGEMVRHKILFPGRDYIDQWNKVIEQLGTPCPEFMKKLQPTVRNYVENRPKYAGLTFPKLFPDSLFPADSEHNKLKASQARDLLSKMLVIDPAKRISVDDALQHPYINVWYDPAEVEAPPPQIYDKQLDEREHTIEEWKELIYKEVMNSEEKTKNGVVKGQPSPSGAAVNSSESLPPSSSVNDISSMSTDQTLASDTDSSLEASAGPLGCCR

[11] = target: T11, c-Raf-1 (Homo sapiens, UniProt P04049); assay: AlphaScreen kinase assay, c-Raf-1; conditions: read-out: IC50, activity toward kinase c-Raf-1
T11 construct: purchased Upstate Biotechnology

[12] = target: T12, Fms (Homo sapiens, UniProt P07333); assay: AlphaScreen kinase assay, Fms; conditions: read-out: IC50, activity toward kinase Fms
T12 construct: purchased Upstate Biotechnology

[13] = target: T13, Flt1 (Homo sapiens, UniProt P17948); assay: AlphaScreen kinase assay, Flt1; conditions: read-out: IC50, activity toward kinase Flt1
T13 construct: P1826.pETN6 BI-PTP FLT1 M799-D1165-X WT; His6 (N); made in house; host or cells: E. coli (PTP1B co-expressed)
T13 sequence (P17948 with tags, fused parts or gaps): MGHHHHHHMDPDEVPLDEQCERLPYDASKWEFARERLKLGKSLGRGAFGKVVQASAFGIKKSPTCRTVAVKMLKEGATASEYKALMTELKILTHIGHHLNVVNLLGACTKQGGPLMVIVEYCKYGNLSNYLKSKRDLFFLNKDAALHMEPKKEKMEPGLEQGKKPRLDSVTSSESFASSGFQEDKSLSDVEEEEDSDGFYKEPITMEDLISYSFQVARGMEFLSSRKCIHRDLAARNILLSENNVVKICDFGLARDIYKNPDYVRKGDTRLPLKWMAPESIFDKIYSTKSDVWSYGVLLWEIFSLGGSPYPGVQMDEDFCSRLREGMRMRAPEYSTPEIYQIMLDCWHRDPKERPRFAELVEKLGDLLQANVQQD

[14] = target: MAP4K4 (Homo sapiens, UniProt O95819); assay: AlphaScreen kinase assay, MAP4K4; conditions: read-out: IC50, activity toward kinase MAP4K4
[15] = target: T14, Jnk1 (Homo sapiens, UniProt P45983); assay: AlphaScreen kinase assay, Jnk1; conditions: read-out: IC50, activity toward kinase Jnk1
T14 construct: purchased Upstate Biotechnology
T14 sequence (P45983 whole entry): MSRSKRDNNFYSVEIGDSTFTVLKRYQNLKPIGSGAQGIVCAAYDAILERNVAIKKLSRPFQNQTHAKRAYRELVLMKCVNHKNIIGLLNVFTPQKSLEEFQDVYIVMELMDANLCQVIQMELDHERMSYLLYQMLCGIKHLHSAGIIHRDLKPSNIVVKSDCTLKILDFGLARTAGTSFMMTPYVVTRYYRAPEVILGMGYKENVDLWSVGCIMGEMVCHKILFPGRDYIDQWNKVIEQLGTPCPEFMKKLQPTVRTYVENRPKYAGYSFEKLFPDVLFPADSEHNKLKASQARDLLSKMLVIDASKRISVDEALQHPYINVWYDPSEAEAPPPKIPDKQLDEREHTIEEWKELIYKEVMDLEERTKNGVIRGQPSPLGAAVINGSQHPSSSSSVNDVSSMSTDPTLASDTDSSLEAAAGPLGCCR

[16] = target: T15, B-Raf (Homo sapiens, UniProt P15056); assay: AlphaScreen kinase assay, B-Raf; conditions: read-out: IC50, activity toward kinase B-Raf
T15 construct: purchased Upstate Biotechnology

[17] = target: T16, Pyk2 (Homo sapiens, UniProt Q14289); assay: AlphaScreen kinase assay, Pyk2; conditions: read-out: IC50, activity toward kinase Pyk2
T16 construct: purchased Upstate Biotechnology

Row | Compound | IC50 [1] [µM] | IC50 [2] [µM] | IC50 [3] [µM] | IC50 [4] [µM] | IC50 [5] [µM] | IC50 [6] [µM] | IC50 [7] [µM] | IC50 [8] [µM] | IC50 [9] [µM] | IC50 [10] [µM] | IC50 [11] [µM] | IC50 [12] [µM] | IC50 [13] [µM] | IC50 [15] [µM] | IC50 [16] [µM] | IC50 [17] [µM] | IC50 [14] [µM]
1 | COc1ccc(F)c(C(=O)c2c[nH]c3ncc(-c4cccs4)cc23)c1 [Compound P-0656] | ≤ 10 | ≤ 10 | ≤ 10 | ≤ 10 |  |  | ≤ 10 |  | ≤ 10 | ≤ 10 | ≤ 10 | ≤ 10 | ≤ 10 |  |  |  | 
2 | O=C(c1ccc2ccccc2c1)c1c[nH]c2ncccc12 [Compound P-0495] | ≤ 10 | ≤ 10 | ≤ 10 |  |  | ≤ 10 | ≤ 10 | ≤ 10 |  |  |  |  |  |  |  |  | ≤ 10
3 | O=C(c1cc(O)ccc1F)c1c[nH]c2ncc(-c3cccnc3)cc12 [Compound P-0559] | ≤ 10 | ≤ 10 | ≤ 10 | ≤ 10 | ≤ 10 | ≤ 10 | ≤ 10 |  | ≤ 10 | ≤ 10 | ≤ 10 | ≤ 10 | ≤ 10 | ≤ 10 | ≤ 10 | ≤ 10 | 
4 | O=C(c1cccc(Cl)c1Cl)c1c[nH]c2ncc(-c3cccnc3)cc12 [Compound P-0751] | ≤ 10 | ≤ 10 | ≤ 10 | ≤ 10 |  | ≤ 10 | ≤ 10 |  | ≤ 10 |  |  |  | ≤ 10 |  |  |  | 

Further lines, with some results ahead:

Row | IC50 [1] [µM] | IC50 [2] [µM] | IC50 [3] [µM] | IC50 [4] [µM] | IC50 [5] [µM] | IC50 [6] [µM] | IC50 [7] [µM] | IC50 [8] [µM] | IC50 [9] [µM] | IC50 [10] [µM] | IC50 [11] [µM] | IC50 [12] [µM] | IC50 [13] [µM] | IC50 [15] [µM] | IC50 [16] [µM] | IC50 [17] [µM] | Compound | IC50 [14] [µM]
5 | ≤ 10 | ≤ 10 | ≤ 10 | ≤ 10 | ≤ 10 | ≤ 10 | ≤ 10 |  |  |  |  |  |  |  |  |  | O=C(c1cccc(F)c1)c1c[nH]c2nccc(-c3cc(F)cc(F)c3)c12 [Compound P-0316] | 
6 | ≤ 10 | ≤ 10 | ≤ 10 |  |  |  | ≤ 10 | ≤ 10 | ≤ 10 |  |  |  |  |  |  |  | O=C(c1cccc(F)c1F)c1c[nH]c2nccc(-c3cc(F)cc(F)c3)c12 [Compound P-0205] | 
7 | ≤ 10 |  | ≤ 10 |  |  | ≤ 10 | ≤ 10 | ≤ 10 |  | ≤ 10 |  |  |  |  |  |  | Nc1cccc(-c2cnc3[nH]cc(C(=O)c4ccc5nsnc5c4)c3c2)c1 [Compound P-0703] | 
